Measured values reported in article PMC7857870, “Design and Synthesis of 4-O-Podophyllotoxin Sulfamate Derivatives as Potential Cytotoxic Agents” (Evidence-based Complementary and Alternative Medicine : eCAM, 2021).
“Also recorded” adds a separate entry of the source.

Columns and labels:
MCF7 cells = assay: Annexin V FITC/PI apoptosis assay (flow cytometry); assay type: cell-based, human; conditions: 24 h treatment, 0.5-5.0 µM, dose-dependent
Experimental: Annexin V FITC/PI assay was used to evaluate possible ability to induce apoptosis. MCF7 cells were cultured in 6 well plates (1 × 10^5 cells/well) overnight at 37°C. Compounds 2, 3, and 7 were used to treat cells (0, 0.5, 1.0, and 5.0 µM). After 24 h, the supernatant of treated cells was collected in tubes and kept in ice, and cells were trypsinized and incubated at 37°C before being added to the tubes. MCF7 cells were centrifuged (2000 rpm) and washed with PBS (x1), and pellets resuspended in the binding buffer (100 μL) and annexin V FITC (10 μL). Tubes were incubated at room temperature in dark for 20 min, before adding binding buffer (400 μL) and 10 μL propidium iodide (PI). Analysis was performed by flow cytometry (BC, FC500, USA). Different cell populations (early apoptotic, late apoptotic, and necrotic cells) were identified by annexin V and PI staining.

MCF7, A2780, and HT29 = assay: MTT cytotoxicity assay, text summary over the three cancer cell lines and selectivity versus MRC5; assay type: cell-based, human; conditions: for IC50: Homo sapiens, MTT, range over three cancer cell lines, read-out: activity (IC50) against the three cell lines MCF7, A2780 and HT29; for selectivity against MCF7, A2780 and HT29 compared to MRC5 cells: cancer cells versus normal MRC5 cells
Experimental: (§1) Three cancer cell lines, human breast adenocarcinoma (MCF7), human ovary adenocarcinoma (A2780), and human colon adenocarcinoma (HT29), in addition the normal human fetal lung fibroblast (MRC5), were used. All cell lines were obtained from the ATCC. The three cancer cells were subcultured in RPMI-1640 media (10% FBS), while MRC5 was maintained in Eagles minimum essential medium (EMEM, 10% FBS), all at 37°C, 5% CO2, and 100% relative humidity.
(§2) As previously reported, the cytotoxicity of the six compounds, including podophyllotoxin as reference, was evaluated by the MTT assay. The three cell lines and one normal fibroblast cells were separately cultured in 96-well (3 × 10^3/well) and incubated at 37°C overnight. Final compound concentrations are as follows: 0, 0.005, 0.050, 0.500, 5.000, and 25.000 μM (DMSO 0.1%; n = 3). Plates were incubated for 72 h, followed by addition of MTT to each well. Plates were incubated for 3 hr, supernatant was aspirated, and DMSO was added to each well. The absorbance was read on multiplate reader. The optical density of the purple formazan A550 is proportional to the number of viable cells. Compound concentration causing 50% inhibition (IC50) compared to control cell growth (100%) was determined. GraphPad Prism version 5.00 for Windows, GraphPad Software, San Diego California, USA, was used for analysis.

[1] = system: normal human fetal lung fibroblast (MRC5); assay: MTT cytotoxicity assay, 72 h, normal cells; assay type: cell-based; conditions: MTT 72 h, normal fibroblasts, read-out: IC50 ± SD, MRC5
Experimental: as §1, §2

[2] = system: human breast adenocarcinoma (MCF7); assay: MTT cytotoxicity assay, 72 h; assay type: cell-based; conditions: MTT 72 h, read-out: IC50 ± SD, MCF7
Experimental: as §1, §2

[3] = system: human ovary adenocarcinoma (A2780); assay: MTT cytotoxicity assay, 72 h; assay type: cell-based; conditions: MTT 72 h, read-out: IC50 ± SD, A2780
Experimental: as §1, §2

[4] = system: human colon adenocarcinoma (HT29); assay: MTT cytotoxicity assay, 72 h; assay type: cell-based; conditions: HT-29, MTT 72 h, read-out: IC50 ± SD, HT29
Experimental: as §1, §2

[5] = Stability observation of the prepared compound; assay type: physicochemical; conditions: excluded from the biological assay

| SMILES | increase of early apoptotic MCF7 cell population compared to control (MCF7 cells) | IC50 (MCF7, A2780, and HT29) | selectivity against MCF7, A2780 and HT29 compared to MRC5 cells (MCF7, A2780, and HT29) | IC50 [1] | IC50 [2] | IC50 [3] | IC50 [4] | melting point | stability of the compound [5] |
| --- | --- | --- | --- | --- | --- | --- | --- | --- | --- |
| COc1cc(C2c3cc4c(cc3C(OS(=O)(=O)NCc3ccccn3)C3COC(=O)C23)OCO4)cc(OC)c1OC (centres unmarked) [Compound 3, 4-N-(2-Pyridinylmethyl)podophyllotoxin Sulfamate] | 1.7–2.2 fold | 150 to 220 nM | 9.1–13.5 fold | 2030 ± 250 nM | 150 ± 60 nM | 179 ± 10 nM | 222 ± 98 nM |  |  |
| COc1cc(C2c3cc4c(cc3C(OS(=O)(=O)NCCc3ccccn3)C3COC(=O)C23)OCO4)cc(OC)c1OC (centres unmarked) [Compound 4, 4-N-(2-Pyridinylethyl)podophyllotoxin Sulfamate] |  |  | no selectivity | 48 ± 3 nM | 212 ± 10 nM | 456 ± 180 nM | 228 ± 75 nM | 225 °C |  |
| COc1cc(C2c3cc4c(cc3C(OS(=O)(=O)Nc3ccc5cc6ccccc6cc5c3)C3COC(=O)C23)OCO4)cc(OC)c1OC (centres unmarked) [Compound 7, 4-N-(2-Anthracenyl)podophyllotoxin Sulfamate] | 1.7–2.2 fold | 2120 to 5080 nM |  | 9080 ± 1010 nM | 2120 ± 989 nM | 3650 ± 1940 nM | 5080 ± 673 nM |  |  |
| COc1cc(C2c3cc4c(cc3C(OS(=O)(=O)Nc3ccc(F)cc3)C3COC(=O)C23)OCO4)cc(OC)c1OC (centres unmarked) [Compound 6, 4-N-(4-Flourophenyl)podophyllotoxin Sulfamate] |  |  |  |  |  |  |  | 220 °C | unstable |
| COc1cc(C2c3cc4c(cc3C(OS(=O)(=O)Nc3ccccn3)C3COC(=O)C23)OCO4)cc(OC)c1OC (centres unmarked) [Compound 5, 4-N-(2-Pyridinyl)podophyllotoxin Sulfamate] |  |  | no selectivity | 47 ± 42 nM | 184 ± 52 nM | 132 ± 12 nM | 1048 ± 5 nM | 230 °C (dec.) |  |
| COc1cc(C2c3cc4c(cc3C(OS(N)(=O)=O)C3COC(=O)C23)OCO4)cc(OC)c1OC (centres unmarked) [Compound 2, 4-O-Podophyllotoxin Sulfamate] | 1.7–2.2 fold | ≤ 1000 nM | less cytotoxic against MRC5 cells; also recorded: moderate selectivity | 7510 ± 1510 nM | 648 ± 87 nM | 729 ± 363 nM | 1340 ± 637 nM |  |  |
| COc1cc([C@@H]2c3cc4c(cc3[C@H](O)[C@H]3COC(=O)[C@H]23)OCO4)cc(OC)c1OC [Podophyllotoxin] |  |  |  | 43 ± 60 nM | 4 ± 1 nM | 7 ± 1 nM | 2 ± 1 nM |  |  |
